Measurements reported in ChEMBL document CHEMBL4732079, “Design, synthesis and antitumor evaluation of new 1,8-naphthalimide derivatives targeting nuclear DNA” (Eur J Med Chem, 2021).
Active and inactive are the calls of the source. The rule behind the calls is not given here.

Assays:
MGC-803 [1] = test: Induction of apoptosis in human MGC-803 cells assessed as necrotic cells at 2 uM after 24 hrs (reference value: 0.9%); type: functional
MGC-803 [2] = test: Induction of apoptosis in human MGC-803 cells assessed as increase in Bax expression at 0.5 to 1 uM by Western blot analysis; type: functional, cell-based; settings: dose 0.5-1 µM
MGC-803 [3] = test: Induction of apoptosis in human MGC-803 cells assessed as increase in caspase-3 expression at 0.5 to 1 uM by Western blot analysis; type: functional, cell-based; settings: dose 0.5-1 µM
MGC-803 [4] = test: Downregulation of cyclinE expression in human MGC-803 cells at 0.5 to 1 uM by Western blot analysis; type: functional, cell-based; settings: dose 0.5-1 µM
MGC-803 [5] = test: Induction of apoptosis in human MGC-803 cells assessed as early apoptotic cells at 0.5 uM after 24 hrs (reference value: 2.9%); type: functional
MGC-803 [6] = test: Induction of cell cycle arrest in human MGC-803 cells assessed as accumulation of cells at G2 phase at 1 uM for 24 hrs (reference value: 17.61%); type: functional
DNA [7] = test: Induction of DNA damage in human MGC-803 cells assessed as increase in p-CHK2 levels at 0.5 to 1 uM by Western blot analysis; type: cell-based; settings: dose 0.5-1 µM
MGC-803 [8] = test: Induction of apoptosis in human MGC-803 cells assessed as necrotic cells at 0.5 uM after 24 hrs (reference value: 0.9%); type: functional
DNA [9] = test: Induction of DNA damage in human MGC-803 cells assessed as increase in p-H2AX levels at 0.5 to 1 uM by Western blot analysis; type: cell-based; settings: dose 0.5-1 µM
MGC-803 [10] = test: Induction of apoptosis in human MGC-803 cells assessed as viable cells at 1 uM after 24 hrs (reference value: 93.6%); type: functional; settings: read-out: Activity
MGC-803 [11] = test: Induction of apoptosis in human MGC-803 cells assessed as necrotic cells at 1 uM after 24 hrs (reference value: 0.9%); type: functional
[12] = molecular target: T1, DNA topoisomerase 1 (Homo sapiens) (UniProt P11387); test: Inhibition of topoisomerase 1 (unknown origin) assessed as DNA relaxation using pBR322 DNA as substrate at < 20 uM by gel electrophoresis; settings: dose microM <20
T1 sequence (whole entry): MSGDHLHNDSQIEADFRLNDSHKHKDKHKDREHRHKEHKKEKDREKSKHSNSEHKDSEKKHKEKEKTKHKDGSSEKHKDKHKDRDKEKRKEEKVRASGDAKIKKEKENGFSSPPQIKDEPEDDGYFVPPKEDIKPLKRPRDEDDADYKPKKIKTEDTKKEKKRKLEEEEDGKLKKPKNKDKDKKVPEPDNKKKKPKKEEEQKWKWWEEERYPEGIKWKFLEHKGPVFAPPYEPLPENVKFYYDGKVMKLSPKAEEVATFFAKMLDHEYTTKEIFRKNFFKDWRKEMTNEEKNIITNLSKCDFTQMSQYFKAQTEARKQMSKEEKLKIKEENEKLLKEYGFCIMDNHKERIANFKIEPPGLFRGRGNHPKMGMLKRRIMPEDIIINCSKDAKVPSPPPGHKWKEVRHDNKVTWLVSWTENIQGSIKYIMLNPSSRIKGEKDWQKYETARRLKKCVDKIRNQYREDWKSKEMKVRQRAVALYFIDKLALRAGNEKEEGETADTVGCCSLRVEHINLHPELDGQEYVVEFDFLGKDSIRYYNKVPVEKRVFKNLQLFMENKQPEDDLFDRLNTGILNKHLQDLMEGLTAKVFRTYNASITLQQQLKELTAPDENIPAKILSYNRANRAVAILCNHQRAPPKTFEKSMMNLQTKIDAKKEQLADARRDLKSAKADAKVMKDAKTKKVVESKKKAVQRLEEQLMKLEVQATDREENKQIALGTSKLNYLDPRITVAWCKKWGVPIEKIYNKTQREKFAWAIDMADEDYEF

MGC-803 [13] = test: Antitumor activity against human MGC-803 cells xenografted in BALB/c nude mice assessed as tumor increment rate at 15 mg/kg, ip measured after 21 days relative to control; type: functional; settings: time 21 day
MGC-803 [14] = test: Induction of apoptosis in human MGC-803 cells assessed as late apoptotic cells at 2 uM after 24 hrs (reference value: 2.6%); type: functional
SMMC-7721 = test: Antiproliferative activity against human SMMC-7721 cells by MTT assay; type: functional, cell-based
MGC-803 [15] = test: Induction of apoptosis in human MGC-803 cells assessed as late apoptotic cells at 1 uM after 24 hrs (reference value: 2.6%); type: functional
MGC-803 [16] = test: Induction of apoptosis in human MGC-803 cells assessed as early apoptotic cells at 1 uM after 24 hrs (reference value: 2.9%); type: functional
MGC-803 [17] = test: Induction of apoptosis in human MGC-803 cells assessed as decrease in Bcl2 expression at 0.5 to 1 uM by Western blot analysis; type: functional, cell-based; settings: dose 0.5-1 µM
MGC-803 [18] = test: Upregulation of p21 expression in human MGC-803 cells at 0.5 to 1 uM by Western blot analysis; type: functional, cell-based; settings: dose 0.5-1 µM
MGC-803 [19] = test: Induction of cell cycle arrest in human MGC-803 cells assessed as accumulation of cells at G1 phase at 1 uM for 24 hrs (reference value: 62.6%); type: functional
MGC-803 [20] = test: Induction of cell cycle arrest in human MGC-803 cells assessed as accumulation of cells at G1 phase at 0.5 uM for 24 hrs (reference value: 62.6%); type: functional
DNA [21] = test: Induction of DNA damage in human MGC-803 cells assessed as long DNA tails at 1 uM after 24 hrs by comet assay; type: cell-based
MGC-803 [22] = test: Antitumor activity against human MGC-803 cells xenografted in BALB/c nude mice assessed as tumor inhibitory rate at 15 mg/kg, ip measured after 21 days relative to control; type: functional; settings: Mus musculus, MGC-803, ip, 504 h, time 21 day
MGC-803 [23] = test: Induction of cell cycle arrest in human MGC-803 cells assessed as accumulation of cells at S phase at 0.25 uM for 24 hrs (Rvb =20.23%); type: functional
MGC-803 [24] = test: Antitumor activity against human MGC-803 cells xenografted in BALB/c nude mice assessed as tumor inhibitory rate at 5 mg/kg, ip measured after 21 days relative to control; type: functional; settings: Mus musculus, MGC-803, ip, 504 h, time 21 day
MGC-803 [25] = test: Induction of cell cycle arrest in human MGC-803 cells assessed as accumulation of cells at G2 phase at 0.5 uM for 24 hrs (reference value: 17.61%); type: functional
MGC-803 [26] = test: Induction of apoptosis in human MGC-803 cells assessed as increase in caspase-9 expression at 0.5 to 1 uM by Western blot analysis; type: functional, cell-based; settings: dose 0.5-1 µM
SK-OV-3 = test: Antiproliferative activity against human SK-OV-3 cells by MTT assay; type: functional, cell-based
MGC-803 [27] = test: Induction of apoptosis in human MGC-803 cells assessed as late apoptotic cells at 0.5 uM after 24 hrs (reference value: 2.6%); type: functional
A549 = test: cells; settings: Homo sapiens
Description: Antiproliferative activity against human A549 cells by MTT assay

[28] = Toxicity in BALB/c nude mouse xenografted with human MGC-803 cells assessed effect on body weight at 5 to 15 mg/kg, ip measured after 21 days; type: organism-based; settings: in vivo, 504 h, dose 5-15 mg/kg, time 21 day

SMILES | Activity (MGC-803 [1]) [%] | Activity (MGC-803 [2]) | Activity (MGC-803 [3]) | inhibition (MGC-803 [4]) | Activity (MGC-803 [5]) [%] | Activity (MGC-803 [6]) [%] | Activity (DNA [7]) | Activity (MGC-803 [8]) [%] | Activity (DNA [9]) | viability at 1 µM (MGC-803 [10]) [%] | Activity (MGC-803 [11]) [%] | inhibition [12] | T/C (MGC-803 [13]) [%] | Activity (MGC-803 [14]) [%] | IC50 (SMMC-7721) [nM] | Activity (MGC-803 [15]) [%] | Activity (MGC-803 [16]) [%] | Activity (MGC-803 [17]) | Activity (MGC-803 [18]) | Activity (MGC-803 [19]) [%] | other results
CN(C)CCN1C(=O)c2cccc3c(N4CCN(C(=O)c5ccccc5)CC4)c([N+](=O)[O-])cc(c23)C1=O | 5.6 | Active | Active | Active | 10.1 | 0.92 | Active | 3.4 | Active | 66.5 | 4.7 | Active | 47.1 | 20.5 | 1570 | 11.2 | 17.5 | Active | Active | 27.92 | Activity (MGC-803 [20]): 27.88%; Activity (DNA [21]): Active; inhibition in vivo at 15 mg/kg (MGC-803 [22]): 52.8%; Activity (MGC-803 [23]): 37.8%; inhibition in vivo at 5 mg/kg (MGC-803 [24]): 40.1%; Activity (MGC-803 [25]): 3.14%; Activity (MGC-803 [26]): Active; IC50 (SK-OV-3): 1880 nM; Activity (MGC-803 [27]): 11.6%; IC50 (A549): 410 nM; Activity [28]: Non-Toxic
Cc1ccc(S(=O)(=O)N2CCN(c3c([N+](=O)[O-])cc4c5c(cccc35)C(=O)N(CCN(C)C)C4=O)CC2)cc1 | 6.2 | Active | Active | Active | 9.7 | 0 | Active | 4.2 | Active | 72.9 | 4.2 | Active | 38.4 | 10.2 | 2710 | 9.8 | 13.1 | Active | Active | 24.82 | Activity (MGC-803 [20]): 55.85%; Activity (DNA [21]): Active; inhibition in vivo at 15 mg/kg (MGC-803 [22]): 61.7%; Activity (MGC-803 [23]): 40.4%; inhibition in vivo at 5 mg/kg (MGC-803 [24]): 41.9%; Activity (MGC-803 [25]): 0.19%; Activity (MGC-803 [26]): Active; IC50 (SK-OV-3): 320 nM; Activity (MGC-803 [27]): 7.6%; IC50 (A549): 270 nM; Activity [28]: Non-Toxic
